Experimental data published in ChEMBL document CHEMBL1201862, “PubChem BioAssay data set” (2004).
Activity calls are given as the source filed them.

Columns and labels:
Type in all cases: functional
[1] = target: T1, Replicative DNA helicase DnaB (Mycobacterium tuberculosis, UniProt P9WMR3); experiment: DnaB intein splicing inhibitors, dose response, biochemical, cell-free fluorescence (AID 449749)
T1 sequence (P9WMR3 whole entry): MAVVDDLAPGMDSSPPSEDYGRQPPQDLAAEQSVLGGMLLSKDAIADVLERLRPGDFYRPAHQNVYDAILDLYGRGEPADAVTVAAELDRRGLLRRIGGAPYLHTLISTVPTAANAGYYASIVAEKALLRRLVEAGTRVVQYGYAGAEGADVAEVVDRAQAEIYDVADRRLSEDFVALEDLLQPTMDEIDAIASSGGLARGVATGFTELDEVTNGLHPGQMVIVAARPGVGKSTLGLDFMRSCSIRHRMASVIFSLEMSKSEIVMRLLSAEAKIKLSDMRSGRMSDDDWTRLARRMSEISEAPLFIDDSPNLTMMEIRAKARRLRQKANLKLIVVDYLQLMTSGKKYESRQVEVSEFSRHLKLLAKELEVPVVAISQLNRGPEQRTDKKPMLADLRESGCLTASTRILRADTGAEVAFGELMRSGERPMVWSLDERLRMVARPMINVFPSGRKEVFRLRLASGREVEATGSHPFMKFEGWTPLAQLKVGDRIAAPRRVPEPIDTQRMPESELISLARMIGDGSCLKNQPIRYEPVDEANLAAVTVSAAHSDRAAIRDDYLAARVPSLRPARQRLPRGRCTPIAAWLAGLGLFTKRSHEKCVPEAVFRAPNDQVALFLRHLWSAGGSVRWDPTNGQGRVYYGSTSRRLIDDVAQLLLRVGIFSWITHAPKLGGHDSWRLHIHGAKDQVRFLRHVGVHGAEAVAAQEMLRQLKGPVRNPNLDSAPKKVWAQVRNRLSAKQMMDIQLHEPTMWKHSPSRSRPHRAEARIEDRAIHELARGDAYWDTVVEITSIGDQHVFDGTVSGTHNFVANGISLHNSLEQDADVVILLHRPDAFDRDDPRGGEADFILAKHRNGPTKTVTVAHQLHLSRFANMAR

Protein RecA = target: T2, Protein RecA (Mycobacterium tuberculosis, UniProt P9WHJ3); experiment: Fluorescence Cell-Free Homogeneous Dose Retest to Identify Inhibitors of RecA-Intein Splicing Activity. [Related pubchem assays (depositor defined):AID2097, AID2223, AID489010, AID492950]
T2 sequence (P9WHJ3 whole entry): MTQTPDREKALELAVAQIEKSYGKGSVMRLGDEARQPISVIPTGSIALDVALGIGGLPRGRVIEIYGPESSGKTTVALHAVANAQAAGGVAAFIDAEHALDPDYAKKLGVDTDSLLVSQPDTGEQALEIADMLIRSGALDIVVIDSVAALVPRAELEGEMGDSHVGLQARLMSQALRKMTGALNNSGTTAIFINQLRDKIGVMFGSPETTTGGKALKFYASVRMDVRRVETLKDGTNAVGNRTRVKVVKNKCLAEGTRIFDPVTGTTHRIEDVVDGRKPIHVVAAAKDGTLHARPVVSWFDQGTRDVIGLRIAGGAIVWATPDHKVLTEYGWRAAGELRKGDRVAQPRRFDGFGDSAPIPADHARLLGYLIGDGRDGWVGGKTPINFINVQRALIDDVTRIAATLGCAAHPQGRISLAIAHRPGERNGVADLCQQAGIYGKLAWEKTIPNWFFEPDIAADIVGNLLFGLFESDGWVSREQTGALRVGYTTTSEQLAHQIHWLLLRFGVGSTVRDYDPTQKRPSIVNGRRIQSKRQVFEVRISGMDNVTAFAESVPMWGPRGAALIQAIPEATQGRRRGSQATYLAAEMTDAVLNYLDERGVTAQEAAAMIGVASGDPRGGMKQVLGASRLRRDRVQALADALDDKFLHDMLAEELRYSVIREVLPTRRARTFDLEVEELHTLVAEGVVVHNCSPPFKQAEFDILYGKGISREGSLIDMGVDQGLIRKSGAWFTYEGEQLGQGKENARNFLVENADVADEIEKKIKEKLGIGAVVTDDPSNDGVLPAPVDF

[2] = target: T3, Heat shock factor protein 1 (Mus musculus, UniProt P38532); experiment: HSF1 potentiators in luciferase reporter cells, confirmation, cell-based, NIH3T3, luminescence, dose retest (AID 435004);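 note: stress induced by proteasome inhibitor MG132 added 30 min after compound; luciferase reporter driven by HSF1 response element in NIH3T3 cells; actives raise luminescence as potentiators of the MG132 stress response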
T3 sequence (P38532 whole entry): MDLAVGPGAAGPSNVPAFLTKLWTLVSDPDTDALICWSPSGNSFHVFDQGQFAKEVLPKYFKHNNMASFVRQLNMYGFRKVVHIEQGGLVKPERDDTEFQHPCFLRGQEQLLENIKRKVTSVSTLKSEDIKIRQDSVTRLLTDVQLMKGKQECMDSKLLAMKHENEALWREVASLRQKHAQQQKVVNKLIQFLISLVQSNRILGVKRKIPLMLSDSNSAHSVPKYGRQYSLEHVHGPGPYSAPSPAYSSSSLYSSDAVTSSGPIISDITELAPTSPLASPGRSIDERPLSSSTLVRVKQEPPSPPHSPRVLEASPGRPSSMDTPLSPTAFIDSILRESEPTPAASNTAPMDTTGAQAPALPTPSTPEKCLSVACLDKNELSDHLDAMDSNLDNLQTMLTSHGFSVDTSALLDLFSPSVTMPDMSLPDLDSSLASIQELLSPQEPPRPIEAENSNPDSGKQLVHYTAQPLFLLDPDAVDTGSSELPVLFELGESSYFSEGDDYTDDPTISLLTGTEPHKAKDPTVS

[3] = Intein inhibitors as potential Tuberculosis drugs, a cytotoxicity screen. [Related pubchem assays (depositor defined):AID2221, AID2223, AID434968, AID435010, AID449749, AID449750, AID489010]
Fatty acid synthase [4] = target: T4, Fatty acid synthase (Homo sapiens, UniProt P49327); experiment: FAS thioesterase domain inhibitors, dose response, biochemical, kinetic fluorescence intensity (AID 624326);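 note: rate of fluorescence rise from hydrolysis of a fluorogenic O-methyl fluorescein ester substrate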
Fatty acid synthase [5] = target: T4, Fatty acid synthase; experiment: FAS thioesterase domain inhibitors, dose response, biochemical, endpoint fluorescence intensity, uHTS hits (AID 624327);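 note: fluorescence from hydrolysis of an O-methyl fluorescein acyl ester substrate by the enzyme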
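Throughout, for CC50: cells exposed to compound for 72 hours before luminescence readout.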

T4 sequence (P49327 whole entry, the tested form may be a part): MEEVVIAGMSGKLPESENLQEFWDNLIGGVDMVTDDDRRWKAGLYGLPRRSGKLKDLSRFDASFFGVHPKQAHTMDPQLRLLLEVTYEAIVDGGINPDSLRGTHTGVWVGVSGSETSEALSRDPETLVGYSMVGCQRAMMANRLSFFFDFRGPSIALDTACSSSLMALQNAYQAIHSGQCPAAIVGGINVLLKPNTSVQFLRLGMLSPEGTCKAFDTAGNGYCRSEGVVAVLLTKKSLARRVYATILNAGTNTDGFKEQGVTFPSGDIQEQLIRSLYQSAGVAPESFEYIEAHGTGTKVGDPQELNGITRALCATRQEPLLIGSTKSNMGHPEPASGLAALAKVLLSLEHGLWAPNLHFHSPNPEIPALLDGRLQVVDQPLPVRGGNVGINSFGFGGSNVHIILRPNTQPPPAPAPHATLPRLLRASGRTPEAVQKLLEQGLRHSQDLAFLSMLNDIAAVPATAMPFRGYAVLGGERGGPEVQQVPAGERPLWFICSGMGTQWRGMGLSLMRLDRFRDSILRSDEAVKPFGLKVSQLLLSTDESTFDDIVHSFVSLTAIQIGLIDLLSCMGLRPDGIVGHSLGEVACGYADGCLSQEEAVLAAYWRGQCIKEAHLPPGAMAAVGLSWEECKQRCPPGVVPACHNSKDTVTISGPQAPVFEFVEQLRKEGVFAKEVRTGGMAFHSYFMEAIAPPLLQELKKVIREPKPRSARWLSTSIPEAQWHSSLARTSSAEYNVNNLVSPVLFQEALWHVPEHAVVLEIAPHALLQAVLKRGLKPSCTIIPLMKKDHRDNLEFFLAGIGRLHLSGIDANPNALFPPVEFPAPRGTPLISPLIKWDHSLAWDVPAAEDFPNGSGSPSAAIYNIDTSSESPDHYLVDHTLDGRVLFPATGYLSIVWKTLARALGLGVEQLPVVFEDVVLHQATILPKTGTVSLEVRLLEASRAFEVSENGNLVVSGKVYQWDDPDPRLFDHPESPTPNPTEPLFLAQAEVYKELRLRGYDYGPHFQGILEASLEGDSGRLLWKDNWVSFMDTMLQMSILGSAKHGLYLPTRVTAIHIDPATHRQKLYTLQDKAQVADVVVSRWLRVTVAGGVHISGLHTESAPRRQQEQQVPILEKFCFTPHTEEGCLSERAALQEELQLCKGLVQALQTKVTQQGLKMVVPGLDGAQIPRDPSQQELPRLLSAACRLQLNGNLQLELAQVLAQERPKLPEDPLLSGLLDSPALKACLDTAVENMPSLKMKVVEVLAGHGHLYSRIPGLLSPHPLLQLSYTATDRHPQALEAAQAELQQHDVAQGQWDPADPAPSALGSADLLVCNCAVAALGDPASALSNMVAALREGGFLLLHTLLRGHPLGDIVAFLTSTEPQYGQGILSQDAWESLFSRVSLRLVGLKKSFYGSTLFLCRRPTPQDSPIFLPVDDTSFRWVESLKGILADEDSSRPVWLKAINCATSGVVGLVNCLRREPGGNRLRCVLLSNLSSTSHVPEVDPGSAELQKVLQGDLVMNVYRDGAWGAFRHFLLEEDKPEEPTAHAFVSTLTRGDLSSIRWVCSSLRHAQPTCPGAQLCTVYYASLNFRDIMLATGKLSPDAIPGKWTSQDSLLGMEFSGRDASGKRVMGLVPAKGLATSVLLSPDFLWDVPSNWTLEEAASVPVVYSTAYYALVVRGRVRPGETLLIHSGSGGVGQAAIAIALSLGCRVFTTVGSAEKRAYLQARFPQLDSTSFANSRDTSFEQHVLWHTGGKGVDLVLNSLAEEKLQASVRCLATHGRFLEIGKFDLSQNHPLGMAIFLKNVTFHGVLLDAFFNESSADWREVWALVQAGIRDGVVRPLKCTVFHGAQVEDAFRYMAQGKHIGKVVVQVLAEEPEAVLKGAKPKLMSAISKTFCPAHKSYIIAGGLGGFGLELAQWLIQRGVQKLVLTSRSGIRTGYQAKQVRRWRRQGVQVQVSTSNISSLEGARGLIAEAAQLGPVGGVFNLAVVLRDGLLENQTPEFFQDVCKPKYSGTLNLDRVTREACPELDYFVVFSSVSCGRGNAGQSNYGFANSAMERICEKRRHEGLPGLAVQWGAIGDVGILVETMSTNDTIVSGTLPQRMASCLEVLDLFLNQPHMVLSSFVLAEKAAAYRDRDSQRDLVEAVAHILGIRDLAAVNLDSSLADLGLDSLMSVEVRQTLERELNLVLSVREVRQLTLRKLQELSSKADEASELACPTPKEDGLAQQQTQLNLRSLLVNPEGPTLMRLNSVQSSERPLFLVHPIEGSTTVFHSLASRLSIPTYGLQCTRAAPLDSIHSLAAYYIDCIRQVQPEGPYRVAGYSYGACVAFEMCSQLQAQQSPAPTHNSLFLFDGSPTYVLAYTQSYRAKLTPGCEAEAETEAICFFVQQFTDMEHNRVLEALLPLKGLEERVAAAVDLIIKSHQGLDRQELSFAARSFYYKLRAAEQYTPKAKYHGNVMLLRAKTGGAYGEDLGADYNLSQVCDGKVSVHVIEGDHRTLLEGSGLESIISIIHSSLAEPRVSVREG

## Cc1[nH]n(-c2ccccc2)c(=O)c1C(C[N+](=O)[O-])c1ccc(F)cc1 (centres undefined)
[1]
  AC50: 0.729 µM (active)
Protein RecA
  EC50: 4.2 µM (active)
[2]
  EC50: > 260 µM (inactive)
[3]
  CC50: > 40 µM (active)

## CC(CCc1ccccc1)NC(=O)COC(=O)c1cc(NS(=O)(=O)c2ccc(Cl)c([N+](=O)[O-])c2)ccc1O (centres undefined)
Fatty acid synthase [4]
  IC50: 6.97 µM (active)
[1]
  AC50: 3.63 µM (active)
Protein RecA
  EC50: 2.95 µM (active)
Fatty acid synthase [5]
  IC50: 11.1 µM (active)
[3]
  CC50: 32.9 µM (active)
